Measured values published in ChEMBL document CHEMBL4043108, “Identification of galiellalactone-based novel STAT3-selective inhibitors with cytotoxic activities against triple-negative breast cancer cell lines” (Bioorg Med Chem, 2017).
Active and inactive are the calls of the source. The rule behind the calls is not given here.

Assays:
[1] = test system: MDA-MB-468; assay: Cytotoxic activity against human MDA-MB-468 cells incubated for 24 hrs by MTT assay; type: functional, cell-based; settings: MDA-MB-468, 24 h
[2] = test system: MDA-MB-231; assay: Cytotoxic activity against human MDA-MB-231 cells incubated for 24 hrs by MTT assay; type: functional, cell-based; settings: MDA-MB-231, 24 h
[3] = test system: BT-549; assay: Cytotoxic activity against human BT549 cells incubated for 24 hrs by MTT assay; type: functional, cell-based; settings: BT-549, 24 h
[4] = molecular target: Signal transducer and activator of transcription 3 (Homo sapiens) (UniProt P40763); assay: Inhibition of STAT3 transcriptional activity in human MDA-MB-468 cells at 5 uM incubated for 24 hrs by STAT3-dependent luciferase reporter assay; type: cell-based
[5] = molecular target: Signal transducer and activator of transcription 3 (Homo sapiens) (UniProt P40763); assay: Inhibition of STAT3 Tyr705 phosphorylation in human MDA-MB-468 cells at 5 and 10 uM incubated for 4 hrs by Western blot; type: cell-based
[6] = molecular target: Signal transducer and activator of transcription 3 (Homo sapiens) (UniProt P40763); assay: Inhibition of STAT3 Ser727 phosphorylation in human MDA-MB-468 cells at 5 and 10 uM incubated for 4 hrs by Western blot; type: cell-based
[7] = molecular target: T1, Signal transducer and activator of transcription 1-alpha/beta (Homo sapiens) (UniProt P42224); assay: Inhibition of STAT1 Tyr701 phosphorylation in human MDA-MB-468 cells at 5 and 10 uM incubated for 4 hrs by Western blot; type: cell-based
T1 sequence (whole entry): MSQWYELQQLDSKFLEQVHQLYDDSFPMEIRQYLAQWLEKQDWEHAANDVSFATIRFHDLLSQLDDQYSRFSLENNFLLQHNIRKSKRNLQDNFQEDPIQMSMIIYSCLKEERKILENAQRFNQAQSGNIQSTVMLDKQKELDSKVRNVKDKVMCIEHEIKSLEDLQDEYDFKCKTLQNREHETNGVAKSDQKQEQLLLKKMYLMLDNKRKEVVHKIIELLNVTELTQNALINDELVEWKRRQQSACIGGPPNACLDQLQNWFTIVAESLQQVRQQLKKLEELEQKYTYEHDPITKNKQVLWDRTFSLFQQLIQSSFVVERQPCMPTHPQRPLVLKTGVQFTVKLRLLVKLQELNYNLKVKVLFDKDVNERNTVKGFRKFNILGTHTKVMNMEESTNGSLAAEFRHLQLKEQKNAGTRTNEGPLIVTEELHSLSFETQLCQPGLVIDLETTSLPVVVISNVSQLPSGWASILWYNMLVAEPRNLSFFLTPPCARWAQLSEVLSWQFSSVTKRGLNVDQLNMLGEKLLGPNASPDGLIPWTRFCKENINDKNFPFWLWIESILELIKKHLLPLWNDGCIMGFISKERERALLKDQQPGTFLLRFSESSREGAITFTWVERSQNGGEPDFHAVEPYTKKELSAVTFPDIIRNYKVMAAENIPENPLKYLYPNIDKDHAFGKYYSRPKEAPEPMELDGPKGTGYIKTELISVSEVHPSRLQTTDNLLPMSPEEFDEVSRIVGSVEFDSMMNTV

[8] = test system: MDA-MB-468; assay: Effect on total STAT3 protein level in human MDA-MB-468 cells at 5 and 10 uM incubated for 4 hrs by Western blot; type: cell-based; settings: mda-mb-468, 4 h
[9] = test system: MDA-MB-468; assay: Effect on total STAT1 protein level in human MDA-MB-468 cells at 5 and 10 uM incubated for 4 hrs by Western blot; type: cell-based; settings: mda-mb-468, 4 h
[10] = Toxicity in human MDA-MB-468 cells assessed as cell viability at 5 uM incubated for 24 hrs by MTT assay (reference value: 100%); type: cell-based; settings: read-out: Activity
[11] = Toxicity in human MDA-MB-468 cells assessed as cell viability at 10 uM incubated for 24 hrs by MTT assay (reference value: 100%); type: cell-based; settings: read-out: Activity
[12] = molecular target: T2, Signal transducer and activator of transcription 5A (Homo sapiens) (UniProt P42229); assay: Inhibition of STAT5 Tyr694 phosphorylation in human MDA-MB-468 cells at 5 and 10 uM incubated for 4 hrs by Western blot; type: cell-based
T2 sequence (whole entry): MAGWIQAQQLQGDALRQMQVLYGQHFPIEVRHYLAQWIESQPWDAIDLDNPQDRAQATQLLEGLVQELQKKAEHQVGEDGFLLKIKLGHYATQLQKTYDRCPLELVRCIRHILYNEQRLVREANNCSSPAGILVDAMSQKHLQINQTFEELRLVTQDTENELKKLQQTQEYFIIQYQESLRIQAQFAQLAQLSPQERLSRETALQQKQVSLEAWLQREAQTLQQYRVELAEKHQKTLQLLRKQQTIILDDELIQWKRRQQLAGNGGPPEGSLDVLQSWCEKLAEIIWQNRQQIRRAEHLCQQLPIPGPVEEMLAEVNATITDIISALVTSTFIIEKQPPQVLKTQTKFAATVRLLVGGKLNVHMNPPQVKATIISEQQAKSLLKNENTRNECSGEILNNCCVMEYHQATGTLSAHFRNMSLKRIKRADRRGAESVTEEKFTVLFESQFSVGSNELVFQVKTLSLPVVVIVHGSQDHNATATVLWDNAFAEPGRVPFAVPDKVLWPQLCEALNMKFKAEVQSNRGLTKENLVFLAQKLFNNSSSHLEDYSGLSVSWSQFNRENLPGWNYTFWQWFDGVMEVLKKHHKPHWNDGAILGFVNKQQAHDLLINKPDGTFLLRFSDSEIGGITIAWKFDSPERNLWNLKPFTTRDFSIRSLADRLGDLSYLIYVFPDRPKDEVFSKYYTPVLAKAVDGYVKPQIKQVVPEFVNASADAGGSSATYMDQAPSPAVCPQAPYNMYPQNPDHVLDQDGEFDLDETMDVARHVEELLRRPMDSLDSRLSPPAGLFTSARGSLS

Sequence of Signal transducer and activator of transcription 3 (Homo sapiens) (P40763 whole entry): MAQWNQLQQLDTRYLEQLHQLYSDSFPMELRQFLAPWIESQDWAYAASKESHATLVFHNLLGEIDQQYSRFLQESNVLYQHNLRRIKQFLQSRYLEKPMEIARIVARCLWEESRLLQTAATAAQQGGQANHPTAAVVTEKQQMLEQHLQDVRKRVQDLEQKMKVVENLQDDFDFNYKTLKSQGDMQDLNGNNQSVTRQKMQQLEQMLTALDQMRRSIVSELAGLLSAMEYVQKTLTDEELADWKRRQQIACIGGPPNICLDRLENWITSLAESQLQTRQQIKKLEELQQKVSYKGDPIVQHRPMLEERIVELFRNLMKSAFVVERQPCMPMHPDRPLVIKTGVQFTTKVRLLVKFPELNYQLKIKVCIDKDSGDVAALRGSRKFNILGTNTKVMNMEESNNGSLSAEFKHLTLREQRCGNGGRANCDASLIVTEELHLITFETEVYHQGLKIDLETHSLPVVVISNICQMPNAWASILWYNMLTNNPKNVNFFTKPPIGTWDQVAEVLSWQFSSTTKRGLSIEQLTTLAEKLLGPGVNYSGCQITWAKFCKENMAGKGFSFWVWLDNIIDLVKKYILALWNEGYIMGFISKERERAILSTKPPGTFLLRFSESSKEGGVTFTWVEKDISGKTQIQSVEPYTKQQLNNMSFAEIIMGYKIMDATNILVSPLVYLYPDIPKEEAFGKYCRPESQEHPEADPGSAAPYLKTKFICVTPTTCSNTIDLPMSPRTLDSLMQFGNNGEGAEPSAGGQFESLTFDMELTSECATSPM

Row | inhibition [4] | inhibition [5] | inhibition [6] | inhibition [7] | inhibition [12] | SMILES | IC50 [1] [µM] | IC50 [2] [µM] | IC50 [3] [µM] | Activity [8] | Activity [9] | viability at 24 h, 5 µM [10] [%] | viability at 24 h, 10 µM [11] [%]
1 | – | – | – | – | – | C=C1C(=O)O[C@@H]2CC[C@H](CBr)[C@]12OC(C)=O | > 50 | > 50 | > 50 | – | – | – | –
2 | inactive | – | – | – | – | C=CCC(=O)[C@H]1CC[C@H]2OC(=O)C(=C)[C@@]12O | 42.4 | 48.3 | 25.3 | – | – | – | –
3 | – | – | – | – | – | C=C1C(=O)O[C@@H]2CC[C@H](CF)[C@]12O | 22.6 | 23.4 | 7.91 | – | – | – | –
4 | inactive | – | – | – | – | O=C1O[C@@H]2CC[C@@H]3[C@@H](O)CC=C1[C@@]32O | > 50 | > 50 | > 50 | – | – | – | –
5 | inactive | – | – | – | – | C[C@H]1C=C2C(=O)O[C@@H]3CC[C@H](C1=O)[C@]23O | > 50 | > 50 | > 50 | – | – | – | –
6 | – | – | – | – | – | C=C1C(=O)O[C@@H]2CC[C@H](CCl)[C@]12O | > 50 | > 50 | > 50 | – | – | – | –
7 | inactive | – | – | – | – | C=C[C@@H](C)[C@H](O)[C@H]1CC[C@H]2CC(=O)C(=C)[C@]21O | > 50 | > 50 | > 50 | – | – | – | –
8 | Active | Dose-dependent effect | inactive | inactive | – | C=C1C(=O)O[C@@H]2CC[C@H](CBr)[C@]12OC | 7.91 | 8.63 | 6.61 | Non-Toxic | Non-Toxic | 98 | 93
9 | inactive | – | – | – | – | C=C1C(=O)C[C@@H]2CC[C@H](CO)[C@]12O | > 50 | > 50 | 41.1 | – | – | – | –
10 | Active | – | – | – | – | C=C1C(=O)O[C@@H]2CC[C@H](CBr)[C@]12OCC | 7.81 | 9.11 | 5.7 | – | – | – | –
11 | inactive | – | – | – | – | C=CC[C@@H](O)[C@H]1CC[C@H]2OC(=O)C(=C)[C@@]12O | > 50 | > 50 | 38.6 | – | – | – | –
12 | Active | Dose-dependent effect | inactive | inactive | inactive | C[C@@H]1C=C2C(=O)O[C@@H]3CC[C@H](C1)[C@]23O | 17.5 | 16.9 | 12.7 | Non-Toxic | – | 97 | 90
13 | Active | Dose-dependent effect | inactive | inactive | – | C=C1C(=O)O[C@@H]2CC[C@H](CBr)[C@]12O | 11.8 | 12.1 | 9.63 | Non-Toxic | Non-Toxic | 100 | 98
14 | inactive | – | – | – | – | C=C1C(=O)O[C@@H]2CC[C@H](CO)[C@H]12 | > 50 | > 50 | > 50 | – | – | – | –
15 | inactive | – | – | – | – | C=C1C(=O)O[C@@H]2CC[C@H](COC)[C@]12OC | > 50 | > 50 | > 50 | – | – | – | –
16 | inactive | – | – | – | – | C=C1C(=O)O[C@@H]2CC[C@H](CO)[C@]12OC | > 50 | > 50 | > 50 | – | – | – | –
17 | inactive | – | – | – | – | C[C@@H]1C(=O)O[C@@H]2CC[C@H](CBr)[C@]12O | > 50 | > 50 | > 50 | – | – | – | –
18 | – | – | – | – | – | CN[C@@H]1C[C@H]2O[C@@](C)([C@@H]1OC)n1c3ccccc3c3c4c(c5c6ccccc6n2c5c31)C(=O)NC4 [STAUROSPORINE] | 0.15 | – | – | – | – | – | –
19 | inactive | – | – | – | – | O=C1O[C@@H]2CC[C@@H]3[C@H](O)CC=C1[C@@]32O | > 50 | > 50 | > 50 | – | – | – | –
20 | inactive | – | – | – | – | C=CC[C@H](O)[C@H]1CC[C@H]2OC(=O)C(=C)[C@@]12O | 44.1 | 43.6 | 27.4 | – | – | – | –
21 | – | – | – | – | – | C=C1C(=O)O[C@@H]2CC[C@H](CBr)[C@H]12 | 42.6 | 33.3 | 24.7 | – | – | – | –
22 | inactive | – | – | – | – | O=C1O[C@@H]2CC[C@H](CBr)[C@]2(O)[C@]12CO2 | > 50 | > 50 | > 50 | – | – | – | –
23 | – | – | – | – | – | C=C1C(=O)O[C@@H]2CC[C@H](CI)[C@]12O | 23.6 | 26 | 17.3 | – | – | – | –
24 | inactive | – | – | – | – | C[C@H]1C=C2C(=O)O[C@@H]3CC[C@H]([C@@H]1O)[C@]23O | > 50 | > 50 | > 50 | – | – | – | –
25 | inactive | – | – | – | – | C=C1C(=O)O[C@@H]2CC[C@H](COC)[C@]12O | > 50 | > 50 | 37.9 | – | – | – | –
26 | inactive | – | – | – | – | C=C[C@H](C)[C@@H](O)[C@H]1CC[C@H]2CC(=O)C(=C)[C@]21O | > 50 | > 50 | 39.3 | – | – | – | –
27 | inactive | – | – | – | – | C[C@@H]1C=C2C(=O)O[C@@H]3CC[C@H]([C@H]1O)[C@]23O | > 50 | > 50 | > 50 | – | – | – | –
